Our source for the logD and MIC values is ChEMBL document CHEMBL4819051, “Synthesis and antifungal activity of new hybrids thiazolo[4,5-d]pyrimidines with (1H-1,2,4)triazole” (Bioorg Med Chem Lett, 2021).

The nature of data set [1]: 1-octanol/aqueous buffer distribution coefficient, logP of the compound at pH 7.4. The data set is classed as physicochemical.
Data set [2] has as its system Nakaseomyces glabratus. The experiment in a line: Antifungal activity against Candida glabrata 61L assessed as reduction in fungal growth incubated for 24 hrs by CLSI based serial microbroth dilution method. The data set is classed as functional.
Data set [3] relates to Candida albicans. In words: Antifungal activity against Candida albicans 604M assessed as reduction in fungal growth incubated for 48 hrs by CLSI based serial microbroth dilution method. Format: functional. In general terms: In broth dilution the organism is exposed to a series of concentrations in liquid medium.
Data set [4] deals with Candida parapsilosis. In words: Antifungal activity against Candida parapsilosis ATCC 22019 assessed as reduction in fungal growth incubated for 24 hrs by CLSI based serial microbroth dilution method. The data set is classed as functional. The settings on record: Lodderomyces parapsilosis.
For data set [5], the system named is Candida parapsilosis. The experiment in a line: Antifungal activity against Candida parapsilosis ATCC 22019 assessed as reduction in fungal growth incubated for 48 hrs by CLSI based serial microbroth dilution method. Format: functional. Conditions: Lodderomyces parapsilosis.
Data set [6] deals with Candida albicans. The experiment in a line: Antifungal activity against Candida albicans 8R assessed as reduction in fungal growth incubated for 48 hrs by CLSI based serial microbroth dilution method. Format: functional.
Data set [7] deals with Cyberlindnera jadinii. The experiment in a line: Antifungal activity against Candida utilis 84 assessed as reduction in fungal growth incubated for 24 hrs by CLSI based serial microbroth dilution method. Conditions: Williopsis jadinii. The data set is classed as functional.
The subject of data set [8] is Microsporum canis. The experiment in a line: Antifungal activity against Microsporum canis B-200 assessed as reduction in fungal growth incubated for 48 hrs by CLSI based serial microbroth dilution method. Format: functional.
Data set [9] relates to Pichia kudriavzevii. The experiment in a line: Antifungal activity against Candida krusei 432M assessed as reduction in fungal growth incubated for 24 hrs by CLSI based serial microbroth dilution method. The data set is classed as functional.
The subject of data set [10] is Cyberlindnera jadinii. In words: Antifungal activity against Candida utilis 84 assessed as reduction in fungal growth incubated for 48 hrs by CLSI based serial microbroth dilution method. The data set is classed as functional. Conditions: Williopsis jadinii.
The subject of data set [11] is Candida albicans. The experiment in a line: Antifungal activity against Candida albicans CBS 8837 assessed as reduction in fungal growth incubated for 24 hrs by CLSI based serial microbroth dilution method. Format: functional.
In data set [12] the test system is Trichophyton rubrum. In words: Antifungal activity against Trichophyton rubrum 2002 assessed as reduction in fungal growth incubated for 24 hrs by CLSI based serial microbroth dilution method. The data set is classed as functional.
Data set [13] deals with Cryptococcus neoformans. The experiment in a line: Antifungal activity against Cryptococcus neoformans assessed as reduction in fungal growth incubated for 48 hrs by CLSI based serial microbroth dilution method. The data set is classed as functional.
Data set [14] has as its system Candida albicans. The experiment in a line: Antifungal activity against Candida albicans ATCC 24433 assessed as reduction in fungal growth incubated for 48 hrs by CLSI based serial microbroth dilution method. The data set is classed as functional.
In data set [15] the test system is Candida albicans. In words: Antifungal activity against Candida albicans 8R assessed as reduction in fungal growth incubated for 24 hrs by CLSI based serial microbroth dilution method. Format: functional.
Data set [16] has as its system Cryptococcus neoformans. In words: Antifungal activity against Cryptococcus neoformans assessed as reduction in fungal growth incubated for 24 hrs by CLSI based serial microbroth dilution method. Format: functional.
Data set [17] concerns Aspergillus niger. The experiment in a line: Antifungal activity against Aspergillus niger 37a assessed as reduction in fungal growth incubated for 48 hrs by CLSI based serial microbroth dilution method. Format: functional.
Data set [18] deals with Candida tropicalis. In words: Antifungal activity against Candida tropicalis 3019 assessed as reduction in fungal growth incubated for 24 hrs by CLSI based serial microbroth dilution method. The data set is classed as functional.
Data set [19] concerns Candida albicans. In words: Antifungal activity against Candida albicans ATCC 24433 assessed as reduction in fungal growth incubated for 24 hrs by CLSI based serial microbroth dilution method. Format: functional.
The test system of data set [20] is Candida tropicalis. The experiment in a line: Antifungal activity against Candida tropicalis 3019 assessed as reduction in fungal growth incubated for 48 hrs by CLSI based serial microbroth dilution method. Format: functional.
In data set [21] the test system is Trichophyton rubrum. In words: Antifungal activity against Trichophyton rubrum 2002 assessed as reduction in fungal growth incubated for 48 hrs by CLSI based serial microbroth dilution method. Format: functional.
Data set [22] has as its system Candida albicans. In words: Antifungal activity against Candida albicans 604M assessed as reduction in fungal growth incubated for 24 hrs by CLSI based serial microbroth dilution method. The data set is classed as functional.
Data set [23] deals with Microsporum canis. The experiment in a line: Antifungal activity against Microsporum canis B-200 assessed as reduction in fungal growth incubated for 24 hrs by CLSI based serial microbroth dilution method. Format: functional.
Data set [24] concerns Candida albicans. The experiment in a line: Antifungal activity against Candida albicans CBS 8837 assessed as reduction in fungal growth incubated for 48 hrs by CLSI based serial microbroth dilution method. Format: functional.
Data set [25] deals with Pichia kudriavzevii. The experiment in a line: Antifungal activity against Candida krusei 432M assessed as reduction in fungal growth incubated for 48 hrs by CLSI based serial microbroth dilution method. Format: functional.
For data set [26], the system named is Nakaseomyces glabratus. The experiment in a line: Antifungal activity against Candida glabrata 61L assessed as reduction in fungal growth incubated for 48 hrs by CLSI based serial microbroth dilution method. The data set is classed as functional.
Data set [27] concerns Aspergillus niger. The experiment in a line: Antifungal activity against Aspergillus niger 37a assessed as reduction in fungal growth incubated for 24 hrs by CLSI based serial microbroth dilution method. The data set is classed as functional.

Each structure is given as a SMILES string. Values after ≈ are worked out from the molar mass of the structure shown.

The logD is the decadic logarithm of the distribution of all forms, ionised or not, between an organic phase and buffer at a given pH. A high value points to a more lipophilic compound. In [1], `O=c1c2sc(=S)n(-c3ccc(F)cc3)c2ncn1CC(O)(Cn1cncn1)c1ccc(F)cc1F` (stereo not drawn) showed a logD of 0.47.
The same measure, in the same setting: the value for `Cc1ccc(-n2c(=S)sc3c(=O)n(CC(=O)NCC(O)(Cn4cncn4)c4ccc(F)cc4F)cnc32)cc1` (stereo not drawn) was 1.27; that for `Cc1ccc(-n2c(=S)sc3c(=O)n(CC(O)(Cn4cncn4)c4ccc(F)cc4F)cnc32)cc1` (stereo not drawn) was 0.79.
In general, MIC refers to the smallest concentration in the dilution series that meets the test's criterion for growth inhibition. For `O=c1c2sc(=S)n(-c3ccc(Cl)cc3)c2ncn1CCCN1CCN(CC(O)(Cn2cncn2)c2ccc(F)cc2F)CC1` (stereo not drawn), the MIC amounted to 2 µg/mL (≈ 3.03 µM) in the data set on Nakaseomyces glabratus [2]; 32 µg/mL (≈ 48.5 µM) in the data set with Candida albicans [3]; 0.25 µg/mL (≈ 0.379 µM) in the data set with Candida parapsilosis [4]; 0.25 µg/mL (≈ 0.379 µM) in the data set with Candida parapsilosis [5]; 32 µg/mL (≈ 48.5 µM) with Candida albicans [6]; 2 µg/mL (≈ 3.03 µM) in the data set on Cyberlindnera jadinii [7]. The MIC was 32 µg/mL (≈ 48.5 µM) in the data set with Microsporum canis [8]; 16 µg/mL (≈ 24.3 µM) in the data set with Pichia kudriavzevii [9]; 2 µg/mL (≈ 3.03 µM) in the data set with Cyberlindnera jadinii [10]; 16 µg/mL (≈ 24.3 µM) in the data set with Candida albicans [11]; 16 µg/mL (≈ 24.3 µM) with Trichophyton rubrum [12]; 32 µg/mL (≈ 48.5 µM) with Cryptococcus neoformans [13]. Also, the minimal inhibitory concentration (MIC) in the data set with Candida albicans [14] was 32 µg/mL (≈ 48.5 µM); with Candida albicans [15] it was 32 µg/mL (≈ 48.5 µM); in the data set on Cryptococcus neoformans [16], 32 µg/mL (≈ 48.5 µM); with Aspergillus niger [17] it was 32 µg/mL (≈ 48.5 µM); with Candida tropicalis [18], 8 µg/mL (≈ 12.1 µM); in the data set with Candida albicans [19], 16 µg/mL (≈ 24.3 µM). Also, the minimum inhibitory concentration (MIC) in the data set with Candida tropicalis [20] was found to be 8 µg/mL (≈ 12.1 µM); in the data set with Trichophyton rubrum [21] it was 16 µg/mL (≈ 24.3 µM); with Candida albicans [22], 32 µg/mL (≈ 48.5 µM); in the data set on Microsporum canis [23], 32 µg/mL (≈ 48.5 µM); in the data set on Candida albicans [24], 32 µg/mL (≈ 48.5 µM); in the data set with Pichia kudriavzevii [25], 32 µg/mL (≈ 48.5 µM). In addition, the MIC in the data set with Nakaseomyces glabratus [26] and in the data set with Aspergillus niger [27] was 32 µg/mL (≈ 48.5 µM) each time.
As to `O=C(Cn1cnc2c(sc(=S)n2-c2ccc(Cl)cc2)c1=O)NCC(O)(Cn1cncn1)c1ccc(F)cc1F` (stereo not drawn), the logD in data set [1] was 1.16.
Turning to `Cc1ccc(-n2c(=S)sc3c(=O)n(CCCN4CCN(CC(O)(Cn5cncn5)c5ccc(F)cc5F)CC4)cnc32)cc1` (stereo not drawn), the minimum inhibitory concentration (MIC) with Nakaseomyces glabratus [2] was 2 µg/mL (≈ 3.13 µM); in the data set on Candida albicans [3], 32 µg/mL (≈ 50.1 µM); in the data set with Candida parapsilosis [4], 0.5 µg/mL (≈ 0.783 µM); in the data set with Candida parapsilosis [5], 0.5 µg/mL (≈ 0.783 µM); with Candida albicans [6], 32 µg/mL (≈ 50.1 µM); in the data set on Cyberlindnera jadinii [7] it was 4 µg/mL (≈ 6.26 µM). Moreover, the minimum inhibitory concentration (MIC) in the data set on Microsporum canis [8] stood at 32 µg/mL (≈ 50.1 µM); in the data set with Pichia kudriavzevii [9], 16 µg/mL (≈ 25 µM); with Cyberlindnera jadinii [10], 4 µg/mL (≈ 6.26 µM); in the data set on Candida albicans [11] it was 16 µg/mL (≈ 25 µM); in the data set on Trichophyton rubrum [12], 32 µg/mL (≈ 50.1 µM); in the data set on Cryptococcus neoformans [13], 64 µg/mL (≈ 100 µM). Besides, the MIC with Candida albicans [14] turned out to be 32 µg/mL (≈ 50.1 µM); with Candida albicans [15] it was 16 µg/mL (≈ 25 µM); in the data set with Cryptococcus neoformans [16], 64 µg/mL (≈ 100 µM); in the data set with Aspergillus niger [17], 32 µg/mL (≈ 50.1 µM); with Candida tropicalis [18] it was 8 µg/mL (≈ 12.5 µM); in the data set with Candida albicans [19], 16 µg/mL (≈ 25 µM). For the same molecule, the MIC was 16 µg/mL (≈ 25 µM) in the data set on Candida tropicalis [20]; 32 µg/mL (≈ 50.1 µM) in the data set with Trichophyton rubrum [21]; 32 µg/mL (≈ 50.1 µM) in the data set on Candida albicans [22]; 32 µg/mL (≈ 50.1 µM) in the data set on Microsporum canis [23]; 32 µg/mL (≈ 50.1 µM) in the data set with Candida albicans [24]; 32 µg/mL (≈ 50.1 µM) in the data set on Pichia kudriavzevii [25]. In addition, the minimal inhibitory concentration (MIC) with Nakaseomyces glabratus [26] and in the data set with Aspergillus niger [27] was 32 µg/mL (≈ 50.1 µM) throughout. The molecule further returned a pH-dependent lipophilicity (logD) in data set [1] of 4.1.
Consider `O=C(Cn1cnc2c(sc(=S)n2-c2ccc(F)cc2)c1=O)NCC(O)(Cn1cncn1)c1ccc(F)cc1F` (stereo not drawn), for which, in data set [1], the logD was found to be 0.79.
